# According to patent US8669072B2, “Oxadiazoline ligands for modulating the expression of exogenous genes via an ecdysone receptor complex” (Intrexon Corporation, priority 2003, dated 2014):
# Like-named read-outs stand apart in the source and are kept apart here.
# Columns and labels:
# [1] = tested on: WFN (white fly); experiment: Insect toxicity contact bioassay, WFN; type: in vivo
# Experimental: (§1) The compound to be evaluated was dissolved in an appropriate solvent, usually a mix of acetone, methanol, and water. Test solutions were made by serial dilution of a stock test solution with acetone, methanol, and water. Initial evaluations were made at one or more concentrations on one or more of the following insects:
# (§2) Contact bioassays (green peach aphid, two-spotted spider mite, white fly) were conducted by applying a solution of the test compound to the inside surface of a Petri dish. The solution was allowed to air-dry, then each dish was infested and the larvae from each treatment were transferred to a bioassay tray. The trays were held for one to seven days, and the mortality rating was determined for each treatment.
# [2] = tested on: Tobacco Budworm; experiment: Insect toxicity bioassay, TBW; type: in vivo
# Experimental: as §1
# (§3) Feeding bioassays were conducted in bioassay trays containing insect diet. Treatments were made by applying 50 μL of test solution to the surface of the diet in each of 5 wells. After the test solution dried, each well was infested with a single neonate larva. The trays were held for six days and then the mortality rating was determined for each treatment.
# Some of the tobacco budworm tests were conducted as follows. A test solution containing 600 ppm was made by dissolving a compound of the invention in a 1:1 acetone:methanol solution, then adding water to give a 5:5:90 acetone:methanol:water solution, and finally a surfactant was added at an equivalent of 7.37 g of surfactant per 100 L of test solution (1 ounce of surfactant per 100 gallons of test solution). Appropriate dilutions were prepared in water from the 600 ppm solution. A detached cotton leaf, Gossypium hirsutum was placed on moistened filter paper in a Petri dish (100×20 mms). The leaf was sprayed with the test solution using a rotating turntable sprayer and allowed to dry. The dish was infested with 10 first instar larvae of the tobacco budworm and covered with the lid. If the larvae were alive two days after treatment, fresh untreated cotton leaves were added. All treatments were maintained at 23.9-26.7° C. (75-80° F.) under fluorescent light in a well-ventilated room. Percent mortality was determined at four days after treatment.
# [3] = molecular target: T1, GAL4 DBD-CfEcR(DEF)/VP16AD-MmRXRE (Choristoneura fumiferana, UniProt O77240); experiment: 13B3 assay: luciferase reporter gene induction in stable CHO clone 13B3; type: cell-based; conditions: for fold induction at 33.3 µM / Fold Induction Average, 13B3 assay: 48 h; for fold induction at 33.3 µM: read-out: Fold Induction Average, 13B3 assay; for Rel Max FI, 13B3 assay: maximum fold induction relative to that of GS-E ligand; for Fold Induction Average, 13B3 assay: 33/33.3 μM ligand, RLU relative to DMSO
# T1 construct: The wild-type D, E, and F domains from spruce budworm Choristoneura fumiferana EcR (“CfEcR-DEF”)
# In short: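 Stable CHO clone 13B3 co-expressing GAL4 DBD-CfEcR(DEF) and VP16AD-MmRXRE with a GAL4 RE-luciferase reporter; ligands from DMSO stocks diluted 300-fold. Luciferase read by luminescence 48 h after treatment, duplicate wells averaged. Fold induction = RLU treated/RLU DMSO; EC50 from three-parameter logistic fit.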
# [4] = tested on: Cabbage Looper; experiment: Insect toxicity feeding bioassay, CL; type: in vivo
# Experimental: as §1, §3
# [5] = tested on: Beet Armyworm; experiment: Insect toxicity feeding bioassay, BAW; type: in vivo
# Experimental: as §1, §3
# [6] = molecular target: T2, Bombyx mori EcR (VBE) (Bombyx mori, UniProt P49881); experiment: Z3 assay: β-galactosidase reporter gene induction in HEK-293 clone Z3 (CVBE / 6XEcRE LacZ); type: cell-based; conditions: for Rel Max FI, Z3 assay: maximum fold induction relative to that of GS-E ligand; for fold induction at 33 µM: HEK293, 48 h, read-out: Fold Induction Average, Z3 assay; for Fold Induction Average, Z3 assay: 33 μM ligand, 48 h, RLU relative to DMSO
# T2 construct: expressed in transfected cells; host or cells: Human HEK-293 cells, retrovirally infected, clone Z3
# T2 sequence (P49881 86-606 limits assumed): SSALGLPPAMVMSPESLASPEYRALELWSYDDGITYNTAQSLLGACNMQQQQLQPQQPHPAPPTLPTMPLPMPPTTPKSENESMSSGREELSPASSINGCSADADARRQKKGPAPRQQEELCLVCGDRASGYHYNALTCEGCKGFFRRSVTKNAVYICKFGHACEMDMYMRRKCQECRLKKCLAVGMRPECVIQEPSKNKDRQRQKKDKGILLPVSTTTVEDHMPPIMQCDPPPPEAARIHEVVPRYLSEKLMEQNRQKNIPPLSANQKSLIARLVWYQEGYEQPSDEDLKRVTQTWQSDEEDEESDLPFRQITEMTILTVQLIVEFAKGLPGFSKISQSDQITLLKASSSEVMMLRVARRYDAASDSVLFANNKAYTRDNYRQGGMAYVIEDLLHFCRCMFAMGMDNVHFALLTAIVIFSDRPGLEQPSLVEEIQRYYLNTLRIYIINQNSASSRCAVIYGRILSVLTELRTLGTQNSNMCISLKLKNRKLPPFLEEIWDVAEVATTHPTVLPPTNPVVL
# T2 sequence (P19793 1-462 partner): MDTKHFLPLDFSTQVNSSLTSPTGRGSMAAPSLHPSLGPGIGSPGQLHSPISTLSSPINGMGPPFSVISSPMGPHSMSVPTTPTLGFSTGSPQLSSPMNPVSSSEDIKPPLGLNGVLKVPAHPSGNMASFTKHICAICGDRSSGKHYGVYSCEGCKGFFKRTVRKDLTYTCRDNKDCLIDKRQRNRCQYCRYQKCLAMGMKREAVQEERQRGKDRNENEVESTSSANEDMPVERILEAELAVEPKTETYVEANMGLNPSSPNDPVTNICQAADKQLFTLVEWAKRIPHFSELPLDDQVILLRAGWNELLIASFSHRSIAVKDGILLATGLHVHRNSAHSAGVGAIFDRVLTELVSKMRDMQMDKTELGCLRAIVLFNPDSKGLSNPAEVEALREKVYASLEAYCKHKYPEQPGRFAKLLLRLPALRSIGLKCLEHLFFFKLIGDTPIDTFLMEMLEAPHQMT
# [7] = molecular target: CfEcR (CDEF)/CfUSP, GST fusion protein (Choristoneura fumiferana, UniProt O77240); experiment: CfEcR (CDEF)/CfUSP GST fusion protein assay; type: binding
# Sequence of CfEcR (CDEF)/CfUSP, GST fusion protein (O77240 entry or part of it): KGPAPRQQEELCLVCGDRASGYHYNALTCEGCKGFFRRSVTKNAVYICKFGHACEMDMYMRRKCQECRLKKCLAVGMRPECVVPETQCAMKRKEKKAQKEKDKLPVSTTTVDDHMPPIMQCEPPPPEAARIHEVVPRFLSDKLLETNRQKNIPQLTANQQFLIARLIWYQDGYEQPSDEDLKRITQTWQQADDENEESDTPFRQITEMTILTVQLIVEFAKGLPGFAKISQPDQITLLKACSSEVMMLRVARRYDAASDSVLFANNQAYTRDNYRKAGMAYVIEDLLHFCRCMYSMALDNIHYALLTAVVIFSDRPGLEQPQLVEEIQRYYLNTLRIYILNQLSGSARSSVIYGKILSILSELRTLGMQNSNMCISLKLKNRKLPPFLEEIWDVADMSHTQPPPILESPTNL
# Sequence of CfEcR (CDEF)/CfUSP, GST fusion protein (O76202 whole entry, further chain, the tested form may be a part): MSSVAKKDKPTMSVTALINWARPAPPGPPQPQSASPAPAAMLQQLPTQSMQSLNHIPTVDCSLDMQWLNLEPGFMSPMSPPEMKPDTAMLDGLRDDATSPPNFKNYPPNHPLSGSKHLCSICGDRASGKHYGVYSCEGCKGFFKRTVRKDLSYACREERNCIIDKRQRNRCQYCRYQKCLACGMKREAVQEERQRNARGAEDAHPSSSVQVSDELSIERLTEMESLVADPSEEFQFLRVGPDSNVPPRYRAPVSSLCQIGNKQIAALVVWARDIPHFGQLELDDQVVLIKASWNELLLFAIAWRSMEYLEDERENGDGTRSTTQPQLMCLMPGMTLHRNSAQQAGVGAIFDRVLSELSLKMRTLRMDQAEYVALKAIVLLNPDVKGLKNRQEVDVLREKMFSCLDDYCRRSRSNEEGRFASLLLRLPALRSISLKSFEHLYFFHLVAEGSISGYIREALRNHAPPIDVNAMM
# [8] = tested on: MTA (two-spotted spider mite); experiment: Insect toxicity contact bioassay, MTA; type: in vivo
# Experimental: as §1, §2
"EC50 ([7]; GST fusion protein, read-out: CfEcR EC50) [nM]",Structure (SMILES),"Insect Toxicity LC50, WFN ([1]; in vivo) [ppm]","Insect Toxicity LC50, TBW ([2]; in vivo) [ppm]",EC50 [3] [nM],fold induction at 33.3 µM [3],"Rel Max FI, 13B3 assay [3]","Insect Toxicity LC50, CL ([4]; in vivo) [ppm]","Insect Toxicity LC50, BAW ([5]; in vivo) [ppm]",EC50 [6] [nM],"Rel Max FI, Z3 assay [6]",EC50 [7] [nM],"Insect Toxicity LC50, MTA ([8]; in vivo) [ppm]","Insect Toxicity % control @ 150 ppm, WFN [1] [% @ 150]","Insect Toxicity % control @ 150 ppm, TBW [2] [% @ 150]","Insect Toxicity % control @ 150 ppm, CL [4] [% @ 150]","Insect Toxicity % control @ 150 ppm, BAW [5] [% @ 150]",fold induction at 33 µM [6],"Insect Toxicity % control @ 150 ppm, MTA [8]","Fold Induction Average, Z3 assay [6]","Fold Induction Average, 13B3 assay [3]"
,CCC1(C)ON=C(c2cc(C)cc(C)c2)N1NC(=O)c1cc2ccccc2s1 (centres unmarked) [RG-120161],>150,>150,3460,59.9,0.14,17,87,2140,0.08,62.4,110,,,,,,,,
,COc1ccc(C2=NOC(C)(C)N2NC(=O)c2ccccc2)c(OC)c1 [RG-120096],,,> 33300,0.2,0,,,> 50000,0,,,55,0,60,0,0.7,74 @ 150%,,
,CCc1ccc(C(=O)NN2C(c3ccc(Cl)cc3)=NOC2(C)C)cc1 [RG-120035],,,,1.2,,,,,,,,0,0,100,40,9.1,0% @ 150,,
,CC1(C)ON=C(c2cccc(C(F)(F)F)c2)N1NC(=O)c1ccccc1 [RG-120015],,,,,,,,,,,,0,0,0,80,,0% @ 150,0.8,
147,CCC1(C)ON=C(c2cc(C)cc(C)c2)N1NC(=O)Nc1ccccc1 (centres unmarked) [RG-120051],,,,,,,,,,,,,,,,,,,
,CC1(C)ON=C(c2cccc(C(F)(F)F)c2)N1NC(=O)Nc1ccccc1 [RG-120001],,,,,,,,,,,,0,0,20,80,,0% @ 150,0.3,3.3
,Cc1cccc(C(=O)NN2C(c3cc(C)cc(C)c3)=NOC2(C)C)c1 [RG-120077],,,,,,,,,,,,0,0,100,50,,0% @ 150,14.6,0.4
